This is an account of results in patent US9573887B2, “Naphthalene derivative” (Daito Chemix Corporation, priority 2010, dated 2017).

Where a name gives a salt, the structure may show the parent alone.

T1 sequence (Q01853 whole entry): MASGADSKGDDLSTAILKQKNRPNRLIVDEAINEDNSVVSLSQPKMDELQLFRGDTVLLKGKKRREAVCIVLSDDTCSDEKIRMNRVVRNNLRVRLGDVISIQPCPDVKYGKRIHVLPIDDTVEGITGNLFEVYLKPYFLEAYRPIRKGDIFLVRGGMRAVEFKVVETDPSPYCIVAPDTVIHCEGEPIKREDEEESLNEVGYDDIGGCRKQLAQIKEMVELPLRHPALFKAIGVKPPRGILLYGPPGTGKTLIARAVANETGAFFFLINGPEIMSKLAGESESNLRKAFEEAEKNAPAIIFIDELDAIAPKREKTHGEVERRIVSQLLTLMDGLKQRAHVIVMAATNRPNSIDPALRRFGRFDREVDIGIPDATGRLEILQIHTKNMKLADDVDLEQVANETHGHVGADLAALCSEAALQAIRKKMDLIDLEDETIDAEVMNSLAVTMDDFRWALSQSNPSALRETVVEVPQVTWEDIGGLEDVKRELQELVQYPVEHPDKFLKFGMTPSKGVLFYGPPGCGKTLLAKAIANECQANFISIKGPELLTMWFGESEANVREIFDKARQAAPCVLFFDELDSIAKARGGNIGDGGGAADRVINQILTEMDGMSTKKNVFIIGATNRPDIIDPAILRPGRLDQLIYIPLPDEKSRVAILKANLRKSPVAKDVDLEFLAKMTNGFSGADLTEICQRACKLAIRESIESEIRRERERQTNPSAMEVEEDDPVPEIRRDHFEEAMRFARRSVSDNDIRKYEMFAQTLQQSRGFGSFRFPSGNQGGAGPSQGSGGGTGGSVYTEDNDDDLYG

The first assay addresses T1, Mouse VCP (Mus musculus, UniProt Q01853).
T1 construct: histidine tag (N); made in house; host or cells: Sf-9 insect cells (baculovirus vector pVL1392)
Briefly: ATPase activity of purified His-tagged VCP, [γ-32P]ATP, liberated phosphate by liquid scintillation. The assay is classed as biochemical. The conditions noted are these: compounds of Comparative Examples; determined in the same manner as the Examples. In outline: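 N-terminally His-tagged mouse VCP, expressed in Sf-9 cells and nickel-purified, was incubated (500 ng) with 100 μM [γ-32P]ATP and test substance at various concentrations in pH 7.4 HEPES/KCl/MgCl2/DTT buffer, 37° C, 10 min. After TCA stop, released phosphate was molybdate-extracted into organic phase and scintillation-counted. IC50 fitted from concentration-response.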
Consider `Nc1c(/N=N/c2ccc(-c3ccccc3-c3ccccc3)nc2)cc(S(N)(=O)=O)c2ccccc12` [Example 14, sodium salt], for which the IC50 (in general, the concentration that inhibits the measured activity by half) was above 10 µM. With `O=[N+]([O-])c1ccc(-c2cccc3c2sc2ccccc23)nc1` [Example 29, sodium salt], the IC50 is above 100 µM.

Still in this assay, the particulars now being: compounds of Examples; ATPase inhibitory activity; 500 ng VCP, 100 μM ATP, 37° C., 10 minutes.
As to `CSc1ccccc1/N=N/c1cc(S(=O)(=O)O)c2ccccc2c1N` [Example 133, 4-amino-3-(2-methylsulfanylphenylazo)naphthalene-1-sulfonic acid sodium salt], the half-maximal inhibitory concentration (IC50) stood at 0.518 µM. Still for that read-out and setting: the value for `Nc1c(/N=N/c2ccc(-c3cccs3)nc2)cc(S(=O)(=O)O)c2ccccc12` [Example 17, 4-amino-3-(6-thiophene-2-ylpyridine-3-ylazo)naphthalene-1-sulfonic acid sodium salt] was 0.143 µM.

For the compound `Cc1cc(F)ccc1-c1ccc(/N=N/c2cc(S(=O)(=O)O)c3ccccc3c2N)cc1F` [Example 144, 4-amino-3-(2,4′-difluoro-2′-methyl-diphenyl-4-ylazo)naphthalene-1-sulfonic acid sodium salt], the IC50 is 0.199 µM. Same read-out and setting: the figure for `Nc1c(/N=N/c2ccc(-c3cccc4c3Sc3ccccc3S4)nc2)cc(S(=O)(=O)O)c2ccccc12` [Example 76, 4-amino-3-(6-thianthrene-1-ylpyridine-3-ylazo)naphthalene-1-sulfonic acid sodium salt] is 1.41 µM. Regarding `Cc1ccc(F)c(-c2ccc(/N=N/c3cc(S(=O)(=O)O)c4ccccc4c3N)cn2)c1` [Example 59, 4-amino-3-[6-(2-fluoro-5-methylphenyl)pyridine-3-ylazo]naphthalene-1-sulfonic acid sodium salt], the IC50 amounted to 0.38 µM. Same read-out and setting: the figure for `Nc1c(/N=N/c2ccc(OCC3CCCO3)nc2)cc(S(=O)(=O)O)c2ccccc12` (stereo not drawn) [Example 4, 4-amino-3-[6-(tetrahydrofuran-2-ylmethoxy)pyridine-3-ylazo]-1-naphthalenesulfonic acid sodium salt] is 0.407 µM; for `Nc1c(/N=N/c2ccc(-c3ccc(C(=O)c4ccccc4)cc3)nc2)cc(S(=O)(=O)O)c2ccccc12` [Example 47, 4-amino-3-[6-(4-benzoylphenyl)pyridine-3-ylazo]naphthalene-1-sulfonic acid sodium salt] it is 0.589 µM. In the case of `Nc1c(/N=N/c2ccc(-c3c(OCCCNC(=O)c4cccnc4Cl)ccc4c3sc3ccccc34)nc2)cc(S(=O)(=O)O)c2ccccc12` [Example 81, 4-amino-3-[6-(3-{3-[(2-chloropyridine-3-carbonyl)amino]propoxy}dibenzothiophene-4-yl)pyridine-3-ylazo]naphthalene-1-sulfonic acid sodium salt], the concentration for half-maximal inhibition (IC50) is 0.207 µM. Take `Nc1c(/N=N/c2ccc(F)cc2F)cc(S(=O)(=O)O)c2ccccc12` [Example 116, 4-amino-3-(2,4-difluorophenylazo)naphthalene-1-sulfonic acid sodium salt]: the IC50 turned out to be 1.23 µM. Still for that read-out and setting: the figure for `Nc1c(/N=N/c2cccnc2-c2cccnc2)cc(S(=O)(=O)O)c2ccccc12` [Example 51, 4-amino-3-([2,3′]-bipyridinyl3-ylazo)naphthalene-1-sulfonic acid sodium salt] is 3.07 µM; for `Nc1c(/N=N/c2ccc(C(=O)Nc3ccc(CC(C(=O)O)C(=O)O)cc3)cc2)cc(S(=O)(=O)O)c2ccccc12` [Example 124, 2-{4-[4-(1-amino-4-sulfonaphthalene-2-ylazo)benzoylamino]benzyl}malonic acid trisodium salt] it is 4.01 µM.

As for `Cc1cccc(C)c1-c1ccc(/N=N/c2cc(S(=O)(=O)O)c3ccccc3c2N)cn1` [Example 90, 4-amino-3-[6-(2,6-dimethylphenyl)pyridine-3-ylazo]naphthalene-1-sulfonic acid sodium salt], the IC50 is 0.112 µM.

Consider `Nc1c(/N=N/c2ccc(-c3cccc4c3S(=O)(=O)c3ccccc3-4)nc2)cc(S(=O)(=O)O)c2ccccc12` [Example 73, 4-amino-3-[6-(5,5-dioxo-5H-5λ^6-dibenzothiophene-4-yl)pyridine-3-ylazo]naphthalene-1-sulfonic acid sodium salt], for which the IC50 came out at 0.499 µM. Regarding `CCCCCCOc1ccccc1-c1ccc(/N=N/c2cc(S(=O)(=O)O)c3ccccc3c2N)cn1` [Example 61, 4-amino-3-[6-(2-hexyloxyphenyl)pyridine-3-ylazo]naphthalene-1-sulfonic acid sodium salt], the half-maximal inhibitory concentration (IC50) was 0.843 µM. With `Nc1c(/N=N/c2ccc(-c3ncco3)nc2)cc(S(=O)(=O)O)c2ccccc12` [Example 36, 4-amino-3-(6-oxazole-2-ylpyridine-3-ylazo)naphthalene-1-sulfonic acid sodium salt], the half-inhibitory concentration (IC50) was found to be 0.279 µM. With `Nc1c(/N=N/c2c(Br)cc(-c3cccnc3)cc2Br)cc(S(=O)(=O)O)c2ccccc12` [Example 128, 4-amino-3-(2,6-dibromo-4-pyridine-3-ylphenylazo)naphthalene-1-sulfonic acid sodium salt], the IC50 stood at 0.128 µM. As to `Cc1ccc(-c2ccc(/N=N/c3cc(S(=O)(=O)O)c4ccccc4c3N)cc2)cc1` [Example 125, 4-amino-3-(4′-methylbiphenyl-4-ylazo)naphthalene-1-sulfonic acid sodium salt], the IC50 was found to be 0.417 µM. On to `Cc1ccc(-c2cccc(Cl)c2)c(-c2ccc(/N=N/c3cc(S(=O)(=O)O)c4ccccc4c3N)cn2)c1` [Example 75, 4-amino-3-[6-(3′-chloro-4-methylbiphenyl-2-yl)pyridine-3-ylazo]naphthalene-1-sulfonic acid sodium salt], for which the IC50 was 0.924 µM. Consider `CCCOc1cccc(F)c1-c1ccc(/N=N/c2cc(S(=O)(=O)O)c3ccccc3c2N)cn1` [Example 56, 4-amino-3-[6-(2-fluoro-6-propoxyphenyl)pyridine-3-ylazo]naphthalene-1-sulfonic acid sodium salt], for which the IC50 is 0.246 µM. Still for that read-out and setting: the value for `Nc1c(/N=N/c2cccc(OCc3cccnc3)c2)cc(S(=O)(=O)O)c2ccccc12` [Example 138, 4-amino-3-[3-(pyridine-3-ylmethoxy)phenylazo]naphthalene-1-sulfonic acid sodium salt] was 0.516 µM; that for `Nc1c(/N=N/c2ccc(/C=C/c3ccccc3)nc2)cc(S(=O)(=O)O)c2ccccc12` [Example 30, 4-amino-3-(6-styrylpyridine-3-ylazo)naphthalenesulfonic acid sodium salt] was 1.14 µM. For the compound `Nc1c(/N=N/c2ccc(-c3cccnc3)cc2)cc(S(=O)(=O)O)c2ccccc12` [Example 123, 4-amino-3-(4-pyridine-3-ylphenylazo)-1-naphthalenesulfonic acid sodium salt], the IC50 amounted to 0.274 µM. Still for that read-out and setting: the value for `Nc1c(/N=N/c2ccc(Cl)cc2Cl)cc(S(=O)(=O)O)c2ccccc12` [Example 111, 4-amino-3-(2,4-dichlorophenylazo)naphthalene-1-sulfonic acid sodium salt] was 0.244 µM; that for `Cc1cc(F)ccc1-c1ccc(/N=N/c2cc(S(=O)(=O)O)c3ccccc3c2N)cn1` [Example 49, 4-amino-3-[6-(4-fluoro-2-methylphenyl)pyridine-3-ylazo]naphthalene-1-sulfonic acid sodium salt] was 0.33 µM.

`Cc1cc(/N=N/c2cc(S(=O)(=O)O)c3ccccc3c2N)cnc1-c1cccc2c1sc1ccccc12` [Example 85, 4-amino-3-(6-dibenzothiophene-4-yl-5-methylpyridine-3-ylazo)naphthalene-1-sulfonic acid sodium salt]: the IC50 is 1.05 µM. Turning to `Nc1c(/N=N/c2ccc(-c3cncc4ccccc34)cc2)cc(S(=O)(=O)O)c2ccccc12` [Example 127, sodium salt], the IC50 was found to be 0.295 µM.

As for `Nc1c(/N=N/c2ccc(-c3ccccc3OCCCO)nc2)cc(S(=O)(=O)O)c2ccccc12` [Example 66, 4-amino-3-{6-[2-(3-hydroxypropoxy)phenyl]pyridine-3-ylazo}naphthalene-1-sulfonic acid sodium salt], the IC50 came to 0.232 µM. Still for that read-out and setting: the figure for `Nc1c(/N=N/c2ccc(-c3ccccc3OCCCNC(=O)c3cccnc3Cl)nc2)cc(S(=O)(=O)O)c2ccccc12` [Example 69, 4-amino-3-[6-(2-{3-[(2-chloropyridine-3-carbonyl)amino]propoxy}phenyl)pyridine-3-ylazo]naphthalene-1-sulfonic acid sodium salt] is 0.09 µM. With `Cc1ccc(C)c(-c2ccc(/N=N/c3cc(S(=O)(=O)O)c4ccccc4c3N)cn2)c1` [Example 34, 4-amino-3-[6-(2,5-dimethylphenyl)pyridine-3-ylazo]naphthalene-1-sulfonic acid sodium salt], the IC50 was 0.274 µM. With `CC(=O)c1ccccc1-c1ccc(/N=N/c2cc(S(=O)(=O)O)c3ccccc3c2N)cn1` [Example 14, 3-[6-(2-acetylphenyl)pyridine-3-ylazo]-4-aminonaphthalene-1-sulfonic acid sodium salt], the 50% inhibitory concentration (IC50) is 0.178 µM.

`Nc1c(/N=N/c2ccc3ncccc3c2)cc(S(=O)(=O)O)c2ccccc12` [Example 147, 4-amino-3-(quinoline-6-ylazo)naphthalene-1-sulfonic acid sodium salt]: the IC50 worked out at 0.502 µM. With `Nc1c(/N=N/c2ccc(-c3cc(Cl)ccc3O)nc2)cc(S(=O)(=O)O)c2ccccc12` [Example 70, 4-amino-3-[6-(5-chloro-2-hydroxyphenyl)pyridine-3-ylazo]naphthalene-1-sulfonic acid sodium salt], the IC50 is 0.712 µM.

With `Cc1cc(-c2cccnc2)ncc1/N=N/c1cc(S(=O)(=O)O)c2ccccc2c1N` [Example 53, 4-amino-3-(4-methyl-[2,3′]bipyridinyl-5-ylazo)naphthalene-1-sulfonic acid sodium salt], the IC50 amounted to 1.15 µM. `Nc1c(/N=N/c2ccc(-c3ccc(Cl)cc3)nc2)cc(S(=O)(=O)O)c2ccccc12` [Example 24, 4-amino-3-[6-(4-chlorophenyl)pyridine-3-ylazo]naphthalene-1-sulfonic acid sodium salt]: the IC50 amounted to 0.54 µM.
